According to article PMC4949465, “Comparative chemical array screening for p38γ/δ MAPK inhibitors using a single gatekeeper residue difference between p38α/β and p38γ/δ” (Scientific Reports, 2016):
“And” between values parts separate entries of the source, which are not always exact repeats. Identical values can stand only once. Values belong to the compound of their own block, whether it stands above or below them.

Experiments:
MUC5AC = test system: MUC5AC; design: method as in PMID 23187130; conditions: airway epithelial cells; BIRB796 at high concentration; cited from earlier work
GST-p38αT106M = target: T1, GST-p38αT106M (Homo sapiens, UniProt Q16539, T106M); test: In vitro kinase assay, GST-ATF2 substrate, [γ-32P]ATP; format: biochemical
T1 construct: made in house
T1 sequence (Q16539 whole entry T106M): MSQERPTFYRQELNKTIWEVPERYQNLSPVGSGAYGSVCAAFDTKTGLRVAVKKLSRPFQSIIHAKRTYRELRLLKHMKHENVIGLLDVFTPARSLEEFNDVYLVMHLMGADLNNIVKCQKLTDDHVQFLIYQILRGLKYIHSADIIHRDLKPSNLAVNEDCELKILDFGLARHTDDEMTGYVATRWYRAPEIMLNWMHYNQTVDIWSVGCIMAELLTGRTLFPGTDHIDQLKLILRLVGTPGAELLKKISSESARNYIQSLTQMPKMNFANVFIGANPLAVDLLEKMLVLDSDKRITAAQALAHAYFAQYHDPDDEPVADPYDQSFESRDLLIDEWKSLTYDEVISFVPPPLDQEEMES
Description: (§1) Bacterially produced GST-p38α and GST-p38αT106M were used for the kinase assay. GST-ATF2 (1–109)[34] was used as a substrate. The assay conditions used have been previously described. […] DMSO (1 μL) was used instead of compound as a negative control. Then, the mixture was combined with the solution containing 1 μg substrate protein, 185 kBq [γ-^32P]ATP and 20 μΜ ATP to generate a 15 μL reaction mixture and incubated for 30 min at 30 °C. The reaction was terminated by adding 7.5 μL of 3 × SDS sample buffer and boiled for 5 min. Phosphorylated substrate protein was then separated by 12.5% SDS- polyacrylamide gel electrophoresis and visualized by autoradiography.

p38α = target: T2, p38α (Homo sapiens, UniProt Q16539); test: KinaseProfiler quantitative kinase assay (Eurofins), MBP substrate; format: biochemical; conditions: ATP at Km 90 µM, means of duplicate determinations
T2 construct: purchased Eurofins Pharma Discovery Services UK Limited (KinaseProfiler service)
T2 sequence (Q16539 whole entry): as the sequence (Q16539 whole entry T106M) above, with M106T counted along it
Description: (§2) SU-002 derivatives (SU-001, 003, 004, 005, and 006, shown in Fig. 3A) were synthesized and the inhibitory activities of SU-002 and its derivatives against p38αT106M were tested. […] We then conducted quantitative kinase assay analyses including IC50 using the KinaseProfiler service of Eurofins Pharma Discovery Services. MBP was used as a substrate for all tested p38 isoforms: p38α, p38αT106M, p38γ, and p38δ. All p38 isoforms used were activated using a constitutively active mutant of MKK6. […] Next, we examined their effects in HeLa cells. […] To verify the specificity of SU-005 for p38δ, a FLAG-tagged p38δM107T was constructed and tested in a similar manner.
(§3) Quantitative kinase assay analyses including IC50 were conducted using the KinaseProfiler service of Eurofins Pharma Discovery Services UK Limited.

p38αT106M = target: T3, p38αT106M (Homo sapiens, UniProt Q16539, T106M); test: as above; format: biochemical; conditions: ATP at Km 70 µM, means of duplicate determinations
T3 construct: purchased Eurofins Pharma Discovery Services UK Limited (KinaseProfiler service)
T3 sequence (Q16539 whole entry T106M): as the sequence (Q16539 whole entry T106M) above
Description: as §2, §3

p38δ = target: T4, p38δ (Homo sapiens, UniProt O15264); test: as above; format: biochemical; conditions: ATP at Km 15 µM, means of duplicate determinations
T4 construct: purchased Eurofins Pharma Discovery Services UK Limited (KinaseProfiler service)
T4 sequence (O15264 1-365): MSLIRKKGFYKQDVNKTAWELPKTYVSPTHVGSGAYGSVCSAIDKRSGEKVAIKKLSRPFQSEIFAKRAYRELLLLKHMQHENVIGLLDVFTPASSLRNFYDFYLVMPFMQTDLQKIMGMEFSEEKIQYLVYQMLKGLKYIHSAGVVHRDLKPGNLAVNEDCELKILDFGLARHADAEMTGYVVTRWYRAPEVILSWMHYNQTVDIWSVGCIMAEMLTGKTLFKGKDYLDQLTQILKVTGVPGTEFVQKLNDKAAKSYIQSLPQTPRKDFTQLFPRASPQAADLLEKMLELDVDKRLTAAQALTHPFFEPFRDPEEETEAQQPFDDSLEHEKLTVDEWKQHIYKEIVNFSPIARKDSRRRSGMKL
Description: as §2, §3

p38γ = target: T5, p38γ (Homo sapiens, UniProt P53778); test: as above; format: biochemical; design: purchased Eurofins Pharma Discovery Services UK Limited (KinaseProfiler service); conditions: ATP at Km 15 µM, means of duplicate determinations
T5 sequence (P53778 1-367): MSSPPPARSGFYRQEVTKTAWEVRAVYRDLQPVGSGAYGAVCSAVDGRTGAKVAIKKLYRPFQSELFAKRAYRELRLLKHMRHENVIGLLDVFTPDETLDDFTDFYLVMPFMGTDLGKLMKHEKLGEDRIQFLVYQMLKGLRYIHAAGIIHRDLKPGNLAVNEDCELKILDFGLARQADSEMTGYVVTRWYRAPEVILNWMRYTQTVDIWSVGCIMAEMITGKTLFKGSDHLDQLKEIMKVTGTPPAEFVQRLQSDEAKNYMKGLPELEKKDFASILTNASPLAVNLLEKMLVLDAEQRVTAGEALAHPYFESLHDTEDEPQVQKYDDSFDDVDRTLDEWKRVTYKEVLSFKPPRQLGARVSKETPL
Description: as §2, §3

GST-p38αT106M mutant = target: T6, GST-p38αT106M mutant (Homo sapiens, UniProt Q16539, T106M); test: Comparative chemical array screening, binding to GST-p38αT106M; conditions: Table S2
T6 construct: made in house; host or cells: bacteria (stated for the kinase assay)
T6 sequence (Q16539 whole entry T106M): as the sequence (Q16539 whole entry T106M) above
Description: Photo-cross-linked chemical arrays were prepared by the previously described method[33] utilizing a photoaffinity proline linker that had both PEG and a polyproline helix as spacers.
The slides were then washed with TBS-T buffer (10 mM Tris/HCl, 150 mM NaCl, 0.05% Tween-20, pH 8.0) three times for 5 min each and centrifuged (480 × g, 1 min) to dry. […] After washing with TBS-T buffer, the slides were incubated with an anti-GST antibody (30 μg/mL) in binding buffer at 30 °C for 1 h. This incubation was followed by another wash step and incubation with a secondary antibody (goat anti-rabbit IgG, Cy5 conjugate, 50 μg/mL in binding buffer) at 30 °C for 1 h. After the final wash step and spin dry, the slides were scanned at 635 nm on a GenePix 4300A microarray scanner (Molecular Devices). The fluorescence intensity (I) of each compound spot was quantified with GenePix 5.0 software with local background correction. Then, the difference (ΔΙ) of the fluorescence intensities between the GST-p38αT106M and GST-p38α-treated arrays was calculated by subtracting Ip38α from IT106M (ΔI = IT106M - Ip38α) for each spot. The mean and standard deviation (SD) of ΔI for all spots on the array were also calculated. The ΔΙ score of each spot was calculated using the following formula; ΔΙ score = (ΔI - mean)/SD. The compounds with a ΔΙ score larger than 2 were determined to be hit compounds for GST-p38αT106M. […]

GST-p38α = target: T7, GST-p38α (Homo sapiens, UniProt Q16539); test: In vitro kinase assay, GST-ATF2 substrate, [γ-32P]ATP; format: biochemical; conditions: Fig. 2C, SU-002 0.06-7.6 μM
T7 construct: made in house
T7 sequence (Q16539 whole entry): as the sequence (Q16539 whole entry T106M) above, with M106T counted along it
Description: as §1

endogenous p38γ = target: T8, endogenous p38γ (Homo sapiens, UniProt P53778); test: Endogenous p38γ auto-phosphorylation in HEK293T cells, western blot; format: cell-based; conditions: 10 μM, 0.2 M NaCl stimulation, Fig. 6
T8 construct: endogenous in cells; host or cells: HEK293T
T8 sequence (P53778 1-367): T5 sequence (P53778 1-367)
Description: For the analyses with HEK293T cells, 1 × 10^5 cells were seeded into each well of a 48-well plate. The next day, 10 μM SU derivative or SB202190 was added 1 h prior to stimulation of the cells with 0.2 M NaCl. The cells were further grown in DMEM supplemented with 10% FBS for 20 min. Then, the cells were rinsed once with PBS and harvested in 1 × SDS sample buffer.

inhibition of p38αT106M kinase activity (GST-p38αT106M; 1 μM, Fig. 3B,C): did not inhibit | %kinase activity relative to control, p38α (p38α; 1 µM): 91 ± 13% | %kinase activity relative to control, p38α (p38α; 10 µM): 72 ± 2% | %kinase activity relative to control, p38αT106M (p38αT106M; 1 µM): 99 ± 0% | %kinase activity relative to control, p38αT106M (p38αT106M; 10 µM): 91 ± 6% | %kinase activity relative to control, p38δ (p38δ; 1 µM): 94 ± 2% | %kinase activity relative to control, p38δ (p38δ; 10 µM): 92 ± 1% | %kinase activity relative to control, p38γ (p38γ; 1 µM): 103 ± 8% | %kinase activity relative to control, p38γ (p38γ; 10 µM): 95 ± 2%
Structure (SMILES): Nc1nnc(Sc2ccnc3cc(Cl)ccc23)s1 [SU-001]

IT106M score (GST-p38αT106M mutant; I score = (I − Imean)/ISD, duplicate spots): 4.80 and 3.66 | ΔI score (GST-p38αT106M mutant; ΔI = IT106M – Ip38α, ΔI score = (ΔI − ΔImean)/ΔISD, hit if larger than 2): 6.30 and 4.89 | inhibition of p38α kinase activity (GST-p38α): this inhibition was not seen | inhibition of p38αT106M kinase activity (GST-p38αT106M; 1 μM, Fig. 3B,C): clearly impaired | %kinase activity relative to control, p38α (p38α; 1 µM): 88 ± 6% | %kinase activity relative to control, p38α (p38α; 10 µM): 94 ± 5% | %kinase activity relative to control, p38αT106M (p38αT106M; 1 µM): 83 ± 7% | %kinase activity relative to control, p38αT106M (p38αT106M; 10 µM): 72 ± 2% | %kinase activity relative to control, p38δ (p38δ; 1 µM): 90 ± 0% | %kinase activity relative to control, p38δ (p38δ; 10 µM): 96 ± 0% | inhibition of endogenous p38γ phosphorylation (endogenous p38γ): similarly potent inhibitory activities | %kinase activity relative to control, p38γ (p38γ; 1 µM): 92 ± 5% | %kinase activity relative to control, p38γ (p38γ; 10 µM): 88 ± 2%
Structure (SMILES): CCCCCCCC(=O)Nc1nnc(Sc2ccnc3cc(Cl)ccc23)s1 [SU-002]
inhibition of p38αT106M kinase activity (GST-p38αT106M; Fig. 2C,D, SU-002 0.012-7.6 μM): inhibited the kinase activity of p38αT106M in a dose-dependent manner

%kinase activity relative to control, p38α (p38α; 1 µM): 91 ± 2% | %kinase activity relative to control, p38α (p38α; 10 µM): 86 ± 3% | %kinase activity relative to control, p38αT106M (p38αT106M; 1 µM): 99 ± 0% | %kinase activity relative to control, p38αT106M (p38αT106M; 10 µM): 94 ± 3% | %kinase activity relative to control, p38δ (p38δ; 1 µM): 100 ± 4% | %kinase activity relative to control, p38δ (p38δ; 10 µM): 97 ± 3% | inhibition of endogenous p38γ phosphorylation (endogenous p38γ): no or weak inhibitory activity | %kinase activity relative to control, p38γ (p38γ; 1 µM): 111 ± 4% | %kinase activity relative to control, p38γ (p38γ; 10 µM): 104 ± 8%
Structure (SMILES): CCCCCC(=O)Nc1nnc(Sc2ccnc3cc(Cl)ccc23)s1 [SU-004]

More lines, now with the values behind:

Structure (SMILES): Cc1ccc(-n2nc(C(C)(C)C)cc2NC(=O)Nc2ccc(OCCN3CCOCC3)c3ccccc23)cc1 [BIRB796]
inhibition of production of MUC5AC mRNA and protein (MUC5AC): markedly inhibited

Structure (SMILES): CC(=O)Nc1nnc(Sc2ccnc3cc(Cl)ccc23)s1 [SU-003]
%kinase activity relative to control, p38α (p38α; 1 µM): 92 ± 8% | %kinase activity relative to control, p38α (p38α; 10 µM): 94 ± 6% | %kinase activity relative to control, p38αT106M (p38αT106M; 1 µM): 96 ± 4% | %kinase activity relative to control, p38αT106M (p38αT106M; 10 µM): 94 ± 1% | %kinase activity relative to control, p38δ (p38δ; 1 µM): 99 ± 2% | %kinase activity relative to control, p38δ (p38δ; 10 µM): 81 ± 1% | inhibition of endogenous p38γ phosphorylation (endogenous p38γ): no or weak inhibitory activity | %kinase activity relative to control, p38γ (p38γ; 1 µM): 112 ± 3% | %kinase activity relative to control, p38γ (p38γ; 10 µM): 104 ± 6%
